# In PMC6429117, “Discovery of Galangin as a Potential DPP-4 Inhibitor That Improves Insulin-Stimulated Skeletal Muscle Glucose Uptake: A Combinational Therapy for Diabetes” (International Journal of Molecular Sciences, 2019):
# Biological target: T1, dipeptidyl peptidase-4 (DPP-4) (Homo sapiens, UniProt P27487)
# T1 construct: gene DPP4; recombinant human DPP-4 enzyme
# Test: fluorogenic enzyme inhibition assay (H-Gly-Pro-AMC cleavage, Sigma DPP-4 inhibitor screening kit)
# Type: biochemical
# T1 sequence (P27487 39-766): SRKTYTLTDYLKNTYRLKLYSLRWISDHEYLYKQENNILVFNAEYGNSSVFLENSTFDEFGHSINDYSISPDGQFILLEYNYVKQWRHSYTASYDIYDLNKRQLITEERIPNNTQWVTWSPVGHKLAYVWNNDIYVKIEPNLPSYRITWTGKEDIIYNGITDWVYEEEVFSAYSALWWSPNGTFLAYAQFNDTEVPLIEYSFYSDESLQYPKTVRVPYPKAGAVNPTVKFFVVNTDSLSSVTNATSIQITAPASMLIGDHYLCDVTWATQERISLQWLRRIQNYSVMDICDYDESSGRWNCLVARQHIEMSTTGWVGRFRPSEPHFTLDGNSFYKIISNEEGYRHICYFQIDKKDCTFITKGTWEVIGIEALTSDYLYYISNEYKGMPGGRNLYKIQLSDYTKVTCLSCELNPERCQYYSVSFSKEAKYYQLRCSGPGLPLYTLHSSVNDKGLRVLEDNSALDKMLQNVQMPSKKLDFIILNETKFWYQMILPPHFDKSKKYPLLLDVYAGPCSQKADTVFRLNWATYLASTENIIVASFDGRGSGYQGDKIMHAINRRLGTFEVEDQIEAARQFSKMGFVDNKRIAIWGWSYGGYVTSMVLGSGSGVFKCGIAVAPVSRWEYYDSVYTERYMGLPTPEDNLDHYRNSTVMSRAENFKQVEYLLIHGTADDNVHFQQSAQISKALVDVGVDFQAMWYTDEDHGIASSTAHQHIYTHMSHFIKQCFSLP
smiles,measurement,value
"O=c1c(O)c(-c2ccccc2)oc2cc(O)cc(O)c12 [Galangin, 3,5,7-trihydroxyflavone]",IC50,40.1 µM
